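These data come from cells grown in 96-well plates and exposed to compound for 48 hours at five concentrations. At the GI50, growth is halved.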 The source made the active and inactive calls. Cut-off read from the data, not from the text of the source: active = GI50 up to about 1.1 µM and inactive = higher.
What was measured:
Test in all cases: DTP human tumour cell line panel, 48 h
NCI/ADR-RES = system: NCI/ADR-RES
EKVX = system: EKVX
ACHN = system: ACHN
HL-60 = system: HL-60
MCF7 = system: MCF7
HOP-92 = system: HOP-92
MDA-MB-435 = system: MDA-MB-435
KM12 = system: KM12
786-0 = system: 786-0
NCI-H460 = system: NCI-H460
SW-620 = system: SW-620
SR = system: SR
SNB-19 = system: SNB-19
UACC-62 = system: UACC-62
UO-31 = system: UO-31
UACC-257 = system: UACC-257
U-251 = system: U-251
NCI-H522 = system: NCI-H522
OVCAR-5 = system: OVCAR-5
MDA-MB-231 = system: MDA-MB-231

Measured: GI50

O=C1c2ccccc2C(=O)c2c(NCCCNCCO)ccc(NCCCNCCO)c21
inactive: NCI/ADR-RES 28.5 µM | EKVX 11.8 µM | ACHN 4.51 µM | HL-60 8.97 µM | MCF7 2.88 µM | HOP-92 10.7 µM | MDA-MB-435 12.6 µM | KM12 5.57 µM | 786-0 4.79 µM | NCI-H460 3.8 µM | SW-620 5.13 µM | SR 3.65 µM | SNB-19 5.11 µM | UACC-62 9.42 µM | UO-31 13.1 µM | UACC-257 15.2 µM | U-251 5.36 µM | NCI-H522 3.03 µM | OVCAR-5 8.91 µM | MDA-MB-231 11.6 µM

COc1ccc(C(CC(=O)C(C)(C)CN2CCCCC2)SCCS(=O)(=O)O)cc1 (stereo not given)
inactive: NCI/ADR-RES 35.4 µM | EKVX 30.4 µM | ACHN 33.2 µM | HL-60 41.4 µM | MCF7 28.7 µM | HOP-92 17.8 µM | MDA-MB-435 18.3 µM | KM12 30.4 µM | 786-0 18.3 µM | NCI-H460 22.6 µM | SW-620 32.6 µM | SR 14.3 µM | SNB-19 83.9 µM | UACC-62 37.3 µM | UO-31 37.4 µM | UACC-257 34.4 µM | U-251 62.1 µM | NCI-H522 21.5 µM | OVCAR-5 21.3 µM | MDA-MB-231 27.5 µM

CCOC(=O)C(NC(=O)CC(C)C)(N1CCN(c2cc3c(cc2F)c(=O)c(C(=O)O)cn3C2CC2)CC1)C(F)(F)F (stereo not given)
inactive: NCI/ADR-RES 19.7 µM | EKVX 23.4 µM | ACHN 12.5 µM | HL-60 5.75 µM | MCF7 15.6 µM | HOP-92 9.57 µM | MDA-MB-435 21.9 µM | KM12 13.6 µM | 786-0 29.5 µM | NCI-H460 28.1 µM | SW-620 19.6 µM | SR 11.6 µM | SNB-19 28.8 µM | UACC-62 15.2 µM | UO-31 17.9 µM | UACC-257 16.7 µM | U-251 14.7 µM | NCI-H522 2.73 µM | OVCAR-5 17.7 µM | MDA-MB-231 22 µM

CC(=O)O[C@H]1CC[C@@]2(C)C(=CC[C@H]3[C@@H]4C[C@H](N5CCOCC5)[C@H](OC(C)=O)[C@@]4(C)CC[C@@H]32)C1
inactive: NCI/ADR-RES > 100 µM | EKVX > 100 µM | ACHN > 100 µM | HL-60 54.2 µM | MCF7 > 100 µM | HOP-92 > 100 µM | MDA-MB-435 > 100 µM | KM12 > 100 µM | 786-0 > 100 µM | NCI-H460 > 100 µM | SW-620 > 100 µM | SR 86.5 µM | SNB-19 > 100 µM | UACC-62 > 100 µM | UO-31 > 100 µM | UACC-257 > 100 µM | U-251 > 100 µM | NCI-H522 > 100 µM | OVCAR-5 > 100 µM | MDA-MB-231 > 100 µM

CC(C)Oc1cccc(N2C(CCc3c[nH]c4ccc(Br)cc34)=NS(=O)(=O)c3cnccc32)c1
inactive: NCI/ADR-RES 44 µM | EKVX 29.2 µM | ACHN 28.7 µM | HL-60 23.3 µM | MCF7 21.5 µM | HOP-92 17.5 µM | MDA-MB-435 46.2 µM | KM12 49.7 µM | 786-0 45 µM | NCI-H460 35.1 µM | SW-620 72.3 µM | SR 35.3 µM | SNB-19 49.5 µM | UACC-62 33.3 µM | UO-31 3.64 µM | UACC-257 50.8 µM | U-251 64.6 µM | NCI-H522 27.9 µM | OVCAR-5 29.1 µM | MDA-MB-231 > 100 µM

O=C1CC(c2ccc([N+](=O)[O-])cc2)C2(C(=O)NC(=S)NC2=O)C(c2ccc([N+](=O)[O-])cc2)C1 (stereo not given)
inactive: NCI/ADR-RES 31.6 µM | EKVX 32.7 µM | ACHN 20.1 µM | HL-60 51.6 µM | MCF7 21.4 µM | HOP-92 26.9 µM | MDA-MB-435 15 µM | KM12 18.5 µM | 786-0 27.7 µM | NCI-H460 21.8 µM | SW-620 29.7 µM | SR 52.2 µM | SNB-19 17.5 µM | UACC-62 14.8 µM | UO-31 25.4 µM | UACC-257 18.1 µM | U-251 18.7 µM | NCI-H522 18.9 µM | OVCAR-5 35.5 µM | MDA-MB-231 13.6 µM

CCOC(=O)C1=c2[nH]c3cccc4cccc(c43)n2C(=O)CC1c1ccccc1 (stereo not given)
inactive: NCI/ADR-RES > 100 µM | EKVX > 100 µM | ACHN > 100 µM | HL-60 95.5 µM | MCF7 > 100 µM | HOP-92 > 100 µM | MDA-MB-435 > 100 µM | KM12 > 100 µM | 786-0 > 100 µM | NCI-H460 > 100 µM | SW-620 > 100 µM | SR > 100 µM | SNB-19 > 100 µM | UACC-62 > 100 µM | UO-31 > 100 µM | UACC-257 > 100 µM | U-251 > 100 µM | NCI-H522 > 100 µM | OVCAR-5 > 100 µM | MDA-MB-231 > 100 µM

COc1c(O)cc2c(c1O)C(=O)C(Cc1ccc(O)cc1)CO2 (stereo not given)
inactive: NCI/ADR-RES 32.7 µM | EKVX > 100 µM | ACHN > 100 µM | HL-60 28.1 µM | MCF7 > 100 µM | HOP-92 68.2 µM | MDA-MB-435 28 µM | KM12 89.3 µM | 786-0 > 100 µM | NCI-H460 44.6 µM | SW-620 > 100 µM | SR 24.9 µM | SNB-19 > 100 µM | UACC-62 99.8 µM | UO-31 > 100 µM | UACC-257 > 100 µM | U-251 > 100 µM | NCI-H522 80.7 µM | OVCAR-5 > 100 µM | MDA-MB-231 > 100 µM

O=C(Cc1ccccc1)N/N=C/c1ccccc1O
inactive: NCI/ADR-RES 3.98 µM | EKVX 5.28 µM | ACHN 5.15 µM | HL-60 6.3 µM | MCF7 3.94 µM | HOP-92 9.14 µM | MDA-MB-435 28.6 µM | KM12 32.7 µM | 786-0 6.14 µM | NCI-H460 5.6 µM | SW-620 19.3 µM | SR 5.52 µM | SNB-19 33.1 µM | UACC-62 8.95 µM | UO-31 6.52 µM | UACC-257 9.57 µM | U-251 19.5 µM | NCI-H522 13.2 µM | OVCAR-5 20.6 µM | MDA-MB-231 > 100 µM

CCc1nc(N)nc(N)c1-c1ccc(N2CCOCC2)c(N=[N+]=[N-])c1
inactive: NCI/ADR-RES > 100 µM | EKVX 66.7 µM | ACHN 46 µM | HL-60 > 28.2 µM | MCF7 71.3 µM | HOP-92 78.3 µM | MDA-MB-435 55.1 µM | KM12 70.5 µM | 786-0 57.3 µM | NCI-H460 8.85 µM | SW-620 41.9 µM | SR 36.9 µM | SNB-19 38.3 µM | UACC-62 47 µM | UO-31 > 100 µM | UACC-257 > 100 µM | U-251 67 µM | NCI-H522 20.9 µM | OVCAR-5 > 100 µM | MDA-MB-231 > 100 µM

CC1(C)C(=O)N=C(N)N1C(=O)OCc1ccccc1
inactive: NCI/ADR-RES > 100 µM | EKVX > 100 µM | ACHN > 100 µM | HL-60 > 100 µM | MCF7 > 100 µM | HOP-92 > 100 µM | MDA-MB-435 > 100 µM | KM12 > 100 µM | 786-0 > 100 µM | NCI-H460 > 100 µM | SW-620 > 100 µM | SR > 100 µM | SNB-19 > 100 µM | UACC-62 > 100 µM | UO-31 67.6 µM | UACC-257 > 100 µM | U-251 > 100 µM | NCI-H522 > 100 µM | OVCAR-5 > 100 µM | MDA-MB-231 > 100 µM
